Test results: patent US20210348119A1, “COMPOSITIONS AND METHODS FOR CELL CULTURE” (The United States of America as Represented By The …, priority 2018, published 2021)
Where “and” joins values, the source holds several entries; their conditions need not be identical. Equal entries are not always repeated. Where two headings read alike, the source gives them in different places.

System: H9 cells
Assay: qHTS for survival of dissociated H9 cells (CellTiter-Glo, 24 hours after seeding)
Assay type: cell-based, human
Details: for AC50: read-out: AC50 (concentration at 50% efficacy)
Description: FIG. 2 schematically illustrates qHTS procedure.
All the screed compounds were received pre-plated at the pre-determined concentrations. […] Curve classification is explained in Huang et al. “Chemical genomics profiling of environmental chemical modulation of human nuclear receptors” Environ. Health. Perspect.

[1] = Homo sapiens, H9, 24 h, H9 cell survival normalized to 10 μM Y-27632 (taken to be 100%), read-out: Max (maximum activity value from all tested concentrations)
[2] = Homo sapiens, H9, 24 h, H9 cell survival, CellTiter-Glo 24 hours after seeding
[3] = Homo sapiens, H9, 24 h, H9 cell survival, normalized to 10 μM Y-27632, read-out: Efficacy (activity range between predicted activities at zero and infinite doses, Hill equation)
[4] = H9 cell survival normalized to 10 μM Y-27632 (taken to be 100%)
[5] = H9 cell survival, CellTiter-Glo 24 hours after seeding
[6] = H9 cell survival, normalized to 10 μM Y-27632

| SMILES | Max (maximum activity value from all tested concentrations) [4] | AC50 [5] [µM] | Efficacy (activity range between predicted activities at zero and infinite doses, Hill equation) [6] | other results |
| --- | --- | --- | --- | --- |
| COc1cccc(CNC(=O)Nc2nc(-c3ccncc3)cs2)c1 [1-(3-methoxybenzyl)-3-(4-(pyridin-4-yl)thiazol-2-yl)urea] | – | – | – | Emax [1]: 124%; AC50 [2]: 0.147 µM; Emax [3]: 121% |
| CC1CNCCN1S(=O)(=O)c1cccc2cnccc12.Cl.Cl (stereo not shown) [1-(5-Isoquinolinylsulfonyl)-2-methylpipenvine dihydrochloride] | 85.52% | 4.61 | 92.2 | – |
| Cn1c2ccccc2c2c3c(c4c5ccccc5n(CCC#N)c4c21)CNC3=O [Go-6976] | – | – | – | Emax [1]: 49.1%; AC50 [2]: 4.69 µM; Emax [3]: 37.3% |
| O=C(c1ccc(/C=C/c2n[nH]c3ccccc23)cc1)N1CCNCC1 [KW-2449] | – | – | – | Emax [1]: 40%; AC50 [2]: 33.2 µM; Emax [3]: 44.5% |
| Cc1cccc(NC(=O)c2ccc(C(F)(F)F)cc2C(=O)O)n1 [AF38469] | 22.96% | 5.21 | 29.6 | – |
| C=C1[C@@H](C)[C@H]2[C@H](Cc3ccccc3)NC(=O)[C@]23OC(=O)/C=C/[C@H](O)CCC[C@@H](C)C/C=C/[C@H]3[C@@H]1O [Cytochalasin B] | 14.14% | 7.5 | 43.2 | – |
| O=S(=O)(N=Cc1c(O)ccc2ccccc12)c1cccs1 [STF-083010] | 66.46% | 26.4 | 82.4 | – |
| CCS(=O)(=O)N1CC(CC#N)(n2cc(-c3ncnc4[nH]ccc34)cn2)C1 [Baricitinib] | – | – | – | Emax [1]: 115% |
| C[C@]12C[C@@H](O)[C@H]3[C@@H](CC[C@@H]4C[C@@H](O)CC[C@@]43CO)[C@@]1(O)CC[C@@H]2C1=CC(=O)OC1 [19-hydroxysarmentogenin] | 21.79% | 0.004 | −11.5 | – |
| CC[C@@](C)(Nc1ccnc(-c2c[nH]c3ncccc23)n1)C(=O)NCC(F)(F)F [Decernotinib] | – | – | – | Emax [1]: 34%; AC50 [2]: 2.93 µM; Emax [3]: 30.1% |
| Oc1cccc2c(O)nccc12 [1,5-Isoquinolinediol] | – | – | – | Emax [1]: 41%; AC50 [2]: 18.4 µM; Emax [3]: 42.2% |
| CC(C)CC(=O)OC1OC=C(CO[C@@H]2O[C@H](CO)[C@@H](O)[C@H](O)[C@H]2O)C2CC(O)C(O)(CO)C12 (stereo partly shown) [NCGC00347879-02] | 30.87% | – | 0 | – |
| N#CCNC(=O)c1ccc(-c2ccnc(Nc3ccc(N4CCOCC4)cc3)n2)cc1 [Momelotinib] | – | – | – | AC50 [2]: 0.935 µM |
| O=C(Nc1ccc(-c2ccnc(Nc3ccc(N4CCOCC4)cc3)n2)cc1)[C@@H]1CCCN1 [XL-19] | 29.98% | 23.3 | 35.5 | – |
| O=c1[nH]c2ccc(Cl)cc2c(N[C@@H]2CN3CCC2CC3)c1-c1nc2ccccc2[nH]1 [CHIR-124] | 21.27% | 0.235 | 12.4 | – |
| C[C@@H]1CCN(C(=O)N2CCCC2)C[C@@H]1N(C)c1ncnc2[nH]ccc12 [PF-956980] | 47.75% | 23.3 | 53 | – |
| C[C@H]1[C@H](C)CC[C@]2(C(=O)O)CC[C@]3(C)C(=CC[C@@H]4[C@@]5(C)CC[C@H](O)C(C)(C)[C@@H]5CC[C@]43C)[C@H]12 [URSOLIC ACID] | – | – | – | Emax [1]: 22.3%; AC50 [2]: 0.521 µM; Emax [3]: 11.7% |
| C=C(NC(=O)C(=C)NC(=O)c1csc(C2=N[C@@H]3c4csc(n4)[C@H]4NC(=O)c5csc(n5)[C@H]([C@](C)(O)[C@@H](C)O)NC(=O)[C@H]5CSC(=N5)/C(=C/C)NC(=O)[C@H]([C@@H](C)O)NC(=O)c5csc(n5)[C@]3(CC2)NC(=O)[C@H](C)NC(=O)C(=C)NC(=O)[C@H](C)NC(=O)[C@H]([C@@H](C)CC)N[C@@H]2C=Cc3c([C@H](C)O)cc(nc3[C@H]2O)C(=O)O[C@@H]4C)n1)C(N)=O [Thiostrepton from Streptomyces azureus, Thiostrepton] | – | – | – | AC50 (Homo sapiens, H9, 24 h): 14.7 µM; Emax (Homo sapiens, H9, 24 h, read-out: Efficacy (activity range between predicted activities at zero and infinite doses, Hill equation)): 30.2%; Emax (Homo sapiens, H9, 24 h, read-out: Max (maximum activity value from all tested concentrations)): 28.4% |
| C/C=C/C(=O)C(C)C1=CC(=O)C2=C(OC34CC[C@H](O)C(C)(C)[C@@H]3CC[C@H](C)C4(C)C2)C1=O (stereo partly shown) [podosporin A] | 26.17% | – | 0 | – |
| COc1c(Nc2ncc(Cl)c(N[C@H]3[C@@H](C(N)=O)[C@@H]4C=C[C@H]3C4)n2)ccc2c1CC[C@@H](N1CCOCC1)CC2 [CEP-28122] | 23.83% | 0.585 | 23.5 | – |
| Cl.NC(N)=NCCNS(=O)(=O)c1cccc2cnccc12 [HA-1004 hydrochloride] | 50.05% | 5.17 | 50 | – |
| COc1ccc2c(c1O)OC[C@H]1c3ccc(O)cc3O[C@@H]21 [NCGC00384860-01] | 22.82% | 18.5 | 29.1 | – |
| Clc1ccc(C2(c3ccc(-c4cn[nH]c4)cc3)CCNCC2)cc1 [AT-7867] | 119.5% and 118.4% | – | 92.2 and 104 | – |
| NS(=O)(=O)c1ccc(Nc2nc(OCC3CCCCC3)c3[nH]cnc3n2)cc1 [NU-6102] | 46.11% and 34.8% | – | 57.9 and 43.8 | – |
| Cc1nc(N2CCN(C(=O)c3ccco3)CC2)c2c3c(sc2n1)CCCC3 [ML192] | 25.23% | 0.521 | 13.5 | – |
| C=C1CC[C@@H]2[C@@](C)(CO[C@@H]3O[C@H](CO)[C@@H](O)[C@H](O)[C@H]3O)[C@H](O)CC[C@@]2(C)[C@@H]1CC/C(C)=C/CO[C@@H]1O[C@H](CO)[C@@H](O)[C@H](O)[C@H]1O [NCGC00385284-01] | 26.38% | 0.001 | −31.2 | – |
| CCCCCCCCCCCCCC(=O)O[C@@H]1[C@@H](C)[C@@]2(O)[C@@H](C=C(CO)C[C@]3(O)C(=O)C(C)=C[C@@H]23)[C@@H]2C(C)(C)[C@]12OC(C)=O [Phorbol 12-myristate 13-acetate] | 48.49% | 0.21 | 36.8 | – |
| Cc1cncc2cccc(S(=O)(=O)N3CCCN(C(=O)CN)C[C@@H]3C)c12 [Glycyl-H-1152] | – | – | – | Emax [1]: 121% |
| CCC(=O)N1CCN(c2ccc(-n3c(=O)ccc4cnc5ccc(-c6cnc7ccccc7c6)cc5c43)cc2C(F)(F)F)CC1 [Torin-1] | 27.66% | 10.5 | 31.2 | – |
| N#Cc1cc(F)cc(-c2nc(-c3ccccn3)no2)c1 [VU 0285683] | 21.28% | – | 0 | – |
